Six molecules from patent US4284786A, “5-Methylisoxazole-4-carboxylic-(4-trifluoromethyl)-anilide” (priority 1978, dated 1981) can be followed below.

Read-outs that look alike come from different tables or passages of the source. Where only a bound is given, the exact number is not on record here.

By ED50 is commonly meant the dose at which the effect has come halfway, by size or by number of responders. By LD50 is commonly meant the dose expected to kill half of the subjects tested. A low value points to greater toxicity.

Data set [1] concerns adjuvant arthritis. Kind of data set: Adjuvant arthritis, preventive experiment (Pearson). Format: in vivo, male rats, Wistar-Lewis strain. Particulars: for ED50: Rattus norvegicus, oral, daily days 1-17, reduction in paw volume increase. On the procedure: (§1) The investigations were carried out by the method of Pearson (Arthrit.Rheum. 2, 440 (1959)). The experimental animals used were male rats of a Wistar-Lewis strain, having a body weight of between 130 and 200 g. The compounds to be compared were administered orally, daily from the 1st to the 17th day of the experiment. Animals of the control group were given the solvent only. For each dosage, and in the control group, a group of 8 animals was used. The criterion of the activity was the reduction in the paw volume increase compared to the untreated control group. The ED50 values were determined graphically from the dose/effect curve.

The subject of data set [2] is adjuvant arthritis. As to the kind of experiment: Adjuvant arthritis, Perper modification. Format: in vivo, male rats, Wistar-Lewis strain. Particulars: for Adjuvant arthritis Perper (2) ED50: result in words; for ED50: Rattus norvegicus, 504 h, oral, days 1-12, paw volume on 21st day, read-out: Adjuvant arthritis Perper (2) ED50. On the procedure:
as §1
The experimental animals and experimental methods were as under 1., but the animals were only treated from the 1st to the 12th day of the experiment; after a treatment-free interval of 9 days, the paw volume was determined on the 21st day.

Data set [3] concerns allergic encephalomyelitis. As to the kind of experiment: Allergic encephalomyelitis (Levine). The format is in vivo, male rats, Wistar-Lewis strain. Particulars: for Allergic encephalomyelitis (3) % inhibition: days 1-12, index on 11th day. On the procedure: Known non-steroid antiphlogistic agents are here at most very slightly active.
The investigations were carried out by the method of Levine (Arch.int.Pharmacodyn. 230, 309 (1977)). The experimental animals used were male rats of a Wistar-Lewis strain having a body weight of between 180 and 220 g. The encephalomyelitis was induced by injection of complete Freund adjuvant to which freshly withdrawn homogenized rat spinal marrow extract and Bordetella pertussis vaccine had been added. The compounds to be compared were administered orally once a day from the 1st to the 12th day. For each dose, and for the control group, a group of 10 animals was used. From the 7th day of the experiment, the paralysis symptoms were grouped together daily in one index with the mortality and the change of body weight. […]
loss of 20 g of body weight in each case: 1 point […]
hindquarters paralysis: 3 points paralysis of the entire body: 5 points
The assessment criterion was the percentage inhibition of the index compared to untreated control animals on the 11th day of the experiment. On conclusion of the experiment, blood was taken from the surviving animals to determine the erythrocyte count and leucocyte count as well as the hematocrit.

The nature of data set [4]: in vivo. On the set-up: species or system male Sprague-Dawley rats. The following applies: rat, in vivo; for selectivity ratio: acute UD50 / ED50, read-out: Therapeutic index acute UD50/ED50. Here is the method: (§2) The investigations were carried out in groups of 10 male Sprague-Dawley rats having a body weight of 200-300 g. 48 hours before administration of the compounds to be compared, and up to the time of killing the animals, food was withheld, but there was free access to drinking water. The rats were killed 24 hours after oral administration, and the stomach was removed under running water and inspected for lesions of the mucous membrane. All macroscopically visible lesions were rated as ulcers.

Data set [5] can be described thus: Acute toxicity, intraperitoneal administration to mice. Also noted: species or system NMRI mice. Particulars: mouse, in vivo, ip. An excerpt:
(§3) 6 animals were used per dose.

Data set [6] is described as follows: Acute toxicity, oral administration, mice. The following applies: mouse, in vivo; for selectivity ratio: oral LD50 in mice / ED50, read-out: Therapeutic index LD50/ED50.
Description: as §3

The nature of data set [7]: Sub-acute ulcerogenic action. The format is in vivo, male Sprague-Dawley rats. The following applies: rat, in vivo, po; sub-acute UD50 / ED50; read-out: Therapeutic index sub-acute UD50/ED50. Here is the method:
as §2, with “ulcers. The proportion of animals with ulcers at each dose was determined, as was the UD50 using the method of Litchfield and Wilcoxon (J.Pharmacol.exp.Ther. 96, 99 (1949)).” for “ulcers.”
(§4) The experimental animals and the experimental method were as under 4, with the following modification: the compounds to be compared were administered orally once daily for 4 days to normally fed rats and the animals were killed on the 5th day, after food had been withheld for 24 hours. According to Shriver, this method gives more informative results than a single administration, since medicamentous therapy of rheumatic patients also requires repeated treatment (Toxicology and Appl. Pharmacology 32, 73 (1975)).

In data set [8] the test system is stomach mucous membrane. As to the kind of experiment: Sub-acute ulcerogenic action. Particulars: sub-acute, relative to compound B. Format: in vivo, male Sprague-Dawley rats. Here is the method: as §2, with “ulcers. The proportion of animals with ulcers at each dose was determined, as was the UD50 using the method of Litchfield and Wilcoxon (J.Pharmacol.exp.Ther. 96, 99 (1949)).” for “ulcers.”
as §4

The nature of data set [9]: in vivo. The following applies: rat, in vivo, po. Here is the method: (§5) The acute toxicity were determined by standard methods on NMRI mice and on rats of the Wister and Sprague-Dawley strains. 6 animals were used per dose. The LD50 values were determined by the method of Litchfield and Wilcoxon.
The next data set relates to rats. Kind of data set: in vivo. Particulars: oral toxicity, relative to compound B. Here is the method:
as §5

Data set [10] has as its system stomach mucous membrane. As to the kind of experiment: in vivo. Particulars: single oral dose, fasted rats, 24 hours. Also noted: species or system male Sprague-Dawley rats. Here is the method:
as §2

Setting [11] is: in the therapeutic dosage range.

Turning to `Cc1oncc1C(=O)Nc1cccc(C(F)(F)F)c1` [compound C, 5-methylixoazole-4-carboxylic acid 3-trifluoromethylanilide], the ED50 with adjuvant arthritis [1] was over 50 mg/kg. Further, in the data set with adjuvant arthritis [2] (up to 20.0 (mg/kg)), the “Adjuvant arthritis Perper (2) ED50” value was “inactive”. For the same molecule, the “Allergic encephalomyelitis (3) % inhibition” value in data set [3] (dose 10 mg/kg oral) is recorded as 0%. This molecule also came in with a TD50 at 24 h in “in vivo [4]” (po) of about 600 mg/kg. Besides, the selectivity ratio in “in vivo [4]” (po) is under 12; in [6], under 15. Also, the values for the LD50 in data set [5] and in data set [6] (po) were 100 to 250 mg/kg and 740 mg/kg, respectively.
As for `Cc1oncc1C(=O)Nc1ccccc1C(F)(F)F` [compound E, 5-methylisoxazole-4-carboxylic acid 2-trifluoromethylanilide], the ED50 in the data set on adjuvant arthritis [1] is over 50 mg/kg. Besides, the “Adjuvant arthritis Perper (2) ED50” value with adjuvant arthritis [2] (up to 20.0 (mg/kg)) was “inactive”. Further, in [3] (dose 10 mg/kg oral), the “Allergic encephalomyelitis (3) % inhibition” value came out at 0%. In addition, in “in vivo [4]” (po), the TD50 at 24 h amounted to 350 mg/kg and the selectivity ratio is under 7. Moreover, the LD50 in [5] fell in the range of 300 to 6000 mg/kg.
For the molecule `CCCCC1C(=O)N(c2ccccc2)N(c2ccccc2)C1=O` [compound F, phenylbutazone], the ED50 with adjuvant arthritis [1] was 37 mg/kg. Besides, in the data set on adjuvant arthritis [2] (up to 75 (mg/kg)), the “Adjuvant arthritis Perper (2) ED50” value was “inactive”. Also, the “Allergic encephalomyelitis (3) % inhibition” value in data set [3] (dose 75 mg/kg oral) is 0%.
As to `Cc1oncc1C(=O)Nc1cc(C(F)(F)F)cc(C(F)(F)F)c1` [compound D, 5-methylisoxazole-4-carboxylic acid 3,5-bis-trifluoromethylanilide], the results for the ED50 in the data set with adjuvant arthritis [1] and in the data set on adjuvant arthritis [2] were about 50 mg/kg and over 50 mg/kg, respectively. Further, the selectivity ratio is about 2 in the data set “in vivo [4]” (po) and 50 in data set [6]. Further, in “in vivo [4]” (single oral dose, fasted rats, 24 hours, read-out: Ulcerogenic character acute UD50), the TD50 at 24 h turned out to be 100 mg/kg. The LD50 in data set [5] was over 500 mg/kg.
On to `Cc1oncc1C(=O)Nc1ccc(C(F)(F)F)cc1` [compound A, 5-Methylisoxazole-4-carboxylic acid 4-trifluoromethyl-anilide], for which the “activity times greater than that of compound B” value with adjuvant arthritis [1] (ED50, adjuvant arthritis, preventive, relative to compound B) came out at 6.5 times. Also, the ED50 in the data set on adjuvant arthritis [1] is 2.3 mg/kg; in the data set with adjuvant arthritis [2], 4.5 mg/kg. The “inhibition of immunopathological processes, Perper adjuvant arthritis test” value in the data set on adjuvant arthritis [2] (setting [11]) is “inhibits immunopathological processes”. Moreover, in [3] (dose 10 mg/kg oral), the “Allergic encephalomyelitis (3) % inhibition” value was determined as 100%. Besides, the “inhibition of immunopathological processes, allergic encephalomyelitis test” value in [3] (setting [11]) is “inhibits immunopathological processes”. Also, in data set [3] (rat, in vivo), the “100% inhibition of the paralysis symptoms in allergic encephalomyelitis without gastro-intestinal bleeding” value was “possible”. The TD50 at 24 h in “in vivo [4]” (po) came out at 57 mg/kg. Also, the selectivity ratio in the data set “in vivo [4]” (po) was found to be 25; in data set [7] it was 33; in the data set “in vivo [9]”, 100. For the same molecule, in the data set on stomach mucous membrane [8], the “therapeutic index (UD50/ED50; sub-acute) times greater than that of compound B” value is given as 4.1 times. Further, the LD50 was 150 to 300 mg/kg in data set [5] and 235 mg/kg in the data set “in vivo [9]”. For the same molecule, the “therapeutic range (LD50/ED50) times greater than that of compound B” value with rats turned out to be 2.4 times.
`Cc1oncc1C(=O)Nc1ccc(F)cc1` [compound B, 5-methylisoxazole-4-carboxylic acid 4-fluoroanilide]: the ED50 was found to be 15 mg/kg in the data set on adjuvant arthritis [1] and 25 mg/kg in the data set on adjuvant arthritis [2]. Also, in data set [3] (dose 25 mg/kg oral), the “Allergic encephalomyelitis (3) % inhibition” value is given as 43%. The “Allergic encephalomyelitis (3): finding printed in the % inhibition column” value in [3] (dose 50 mg/kg oral) was “anaemia”. Further, the selectivity ratio in “in vivo [4]” (po) was found to be 17; in [7], 8; in “in vivo [9]”, 41. For the same molecule, the “Ulcerogenic character acute UD50” value in the data set on stomach mucous membrane [10] came out at 250 mg/kg. In addition, the LD50 in [5] was 200 to 400 mg/kg; in the data set “in vivo [9]”, 620 mg/kg.
